Results reported in the NIST ThermoML archive (doi:10.1021/je050484k).
Numbers after ± are expanded uncertainties.

Columns and labels:
[1] = xn = mol fraction of the nth substance listed; conditions: for surface tension liquid-gas: Pendant drop shape; for mass density: 101 kPa, Liquid
[2] = for surface tension liquid-gas: Pendant drop shape; for mass density: 101 kPa, Liquid

## COCCOC [1,2-dimethoxyethane] + Cc1cc(C)cc(C)c1
[1]; 298.15 K, x1 = 0.0997
  surface tension liquid-gas: 27.6 ± 0.3 mN/m
  mass density: 860.5 ± 0.44 kg/m3
[1]; 298.15 K, x1 = 0.201
  surface tension liquid-gas: 27.07 ± 0.3 mN/m
  mass density: 860.03 ± 0.43 kg/m3
[1]; 298.15 K, x1 = 0.2978
  surface tension liquid-gas: 26.59 ± 0.29 mN/m
  mass density: 859.68 ± 0.42 kg/m3
[1]; 298.15 K, x1 = 0.3973
  surface tension liquid-gas: 26.14 ± 0.29 mN/m
  mass density: 859.41 ± 0.41 kg/m3
[1]; 298.15 K, x1 = 0.4991
  surface tension liquid-gas: 25.71 ± 0.28 mN/m
  mass density: 859.29 ± 0.4 kg/m3
[1]; 298.15 K, x1 = 0.5977
  surface tension liquid-gas: 25.35 ± 0.28 mN/m
  mass density: 859.3 ± 0.39 kg/m3
[1]; 298.15 K, x1 = 0.7011
  surface tension liquid-gas: 25 ± 0.27 mN/m
  mass density: 859.52 ± 0.38 kg/m3
[1]; 298.15 K, x1 = 0.7999
  surface tension liquid-gas: 24.67 ± 0.27 mN/m
  mass density: 859.91 ± 0.37 kg/m3
[1]; 298.15 K, x1 = 0.9008
  surface tension liquid-gas: 24.3 ± 0.27 mN/m
  mass density: 860.54 ± 0.36 kg/m3
[1]; 298.15 K, x1 = 1
  surface tension liquid-gas: 23.93 ± 0.26 mN/m
  mass density: 861.38 ± 0.35 kg/m3
[1]; 298.15 K, x1 = 0.0487
  mass density: 860.76 ± 0.45 kg/m3
[1]; 298.15 K, x1 = 0.1518
  mass density: 860.24 ± 0.44 kg/m3
[1]; 298.15 K, x1 = 0.2499
  mass density: 859.85 ± 0.42 kg/m3
[1]; 298.15 K, x1 = 0.3484
  mass density: 859.56 ± 0.41 kg/m3
[1]; 298.15 K, x1 = 0.451
  mass density: 859.35 ± 0.4 kg/m3
[1]; 298.15 K, x1 = 0.5498
  mass density: 859.31 ± 0.39 kg/m3
[1]; 298.15 K, x1 = 0.6494
  mass density: 859.42 ± 0.38 kg/m3
[1]; 298.15 K, x1 = 0.7499
  mass density: 859.69 ± 0.37 kg/m3
[1]; 298.15 K, x1 = 0.8474
  mass density: 860.25 ± 0.36 kg/m3
[1]; 298.15 K, x1 = 0.9484
  mass density: 860.95 ± 0.36 kg/m3
[1]; 313.15 K, x1 = 0.0988
  surface tension liquid-gas: 26.2 ± 0.29 mN/m
  mass density: 847.89 ± 0.46 kg/m3
[1]; 313.15 K, x1 = 0.1996
  surface tension liquid-gas: 25.69 ± 0.29 mN/m
  mass density: 847.11 ± 0.45 kg/m3
[1]; 313.15 K, x1 = 0.3
  surface tension liquid-gas: 25.17 ± 0.28 mN/m
  mass density: 846.42 ± 0.43 kg/m3
[1]; 313.15 K, x1 = 0.4
  surface tension liquid-gas: 24.69 ± 0.28 mN/m
  mass density: 845.85 ± 0.42 kg/m3
[1]; 313.15 K, x1 = 0.5002
  surface tension liquid-gas: 24.24 ± 0.27 mN/m
  mass density: 845.34 ± 0.41 kg/m3
[1]; 313.15 K, x1 = 0.5998
  surface tension liquid-gas: 23.84 ± 0.27 mN/m
  mass density: 845 ± 0.41 kg/m3
[1]; 313.15 K, x1 = 0.6989
  surface tension liquid-gas: 23.49 ± 0.26 mN/m
  mass density: 844.79 ± 0.4 kg/m3
[1]; 313.15 K, x1 = 0.8
  surface tension liquid-gas: 23.17 ± 0.26 mN/m
  mass density: 844.75 ± 0.39 kg/m3
[1]; 313.15 K, x1 = 0.8991
  surface tension liquid-gas: 22.84 ± 0.26 mN/m
  mass density: 844.92 ± 0.38 kg/m3
[1]; 313.15 K, x1 = 1
  surface tension liquid-gas: 22.51 ± 0.25 mN/m
  mass density: 845.28 ± 0.38 kg/m3
[1]; 313.15 K, x1 = 0.0504
  mass density: 848.29 ± 0.46 kg/m3
[1]; 313.15 K, x1 = 0.1505
  mass density: 847.48 ± 0.45 kg/m3
[1]; 313.15 K, x1 = 0.2474
  mass density: 846.78 ± 0.44 kg/m3
[1]; 313.15 K, x1 = 0.3495
  mass density: 846.14 ± 0.43 kg/m3
[1]; 313.15 K, x1 = 0.4498
  mass density: 845.61 ± 0.42 kg/m3
[1]; 313.15 K, x1 = 0.5502
  mass density: 845.18 ± 0.41 kg/m3
[1]; 313.15 K, x1 = 0.6509
  mass density: 844.85 ± 0.4 kg/m3
[1]; 313.15 K, x1 = 0.7494
  mass density: 844.74 ± 0.39 kg/m3
[1]; 313.15 K, x1 = 0.8505
  mass density: 844.8 ± 0.39 kg/m3
[1]; 313.15 K, x1 = 0.9502
  mass density: 845.1 ± 0.38 kg/m3

## COCCOC [1,2-dimethoxyethane] + Cc1ccc(C)c(C)c1
[1]; 298.15 K, x1 = 1
  surface tension liquid-gas: 23.93 ± 0.26 mN/m
  mass density: 861.38 ± 0.35 kg/m3
[1]; 313.15 K, x1 = 1
  surface tension liquid-gas: 22.51 ± 0.25 mN/m
  mass density: 845.31 ± 0.38 kg/m3

## Cc1cc(C)cc(C)c1 [1,3,5-trimethylbenzene]
[2]; 298.15 K
  surface tension liquid-gas: 28.09 ± 0.31 mN/m
  mass density: 861.05 ± 0.46 kg/m3
[2]; 313.15 K
  surface tension liquid-gas: 26.82 ± 0.3 mN/m
  mass density: 848.74 ± 0.47 kg/m3

## Cc1cc(C)cc(C)c1 [1,3,5-trimethylbenzene] + COCCO
[1]; 298.15 K, x2 = 0
  surface tension liquid-gas: 28.09 ± 0.31 mN/m
  mass density: 861.05 ± 0.46 kg/m3
[1]; 298.15 K, x2 = 0.0993
  surface tension liquid-gas: 28.19 ± 0.31 mN/m
  mass density: 865.02 ± 0.44 kg/m3
[1]; 298.15 K, x2 = 0.2021
  surface tension liquid-gas: 28.23 ± 0.31 mN/m
  mass density: 870.67 ± 0.43 kg/m3
[1]; 298.15 K, x2 = 0.3015
  surface tension liquid-gas: 28.34 ± 0.31 mN/m
  mass density: 877.06 ± 0.41 kg/m3
[1]; 298.15 K, x2 = 0.4011
  surface tension liquid-gas: 28.51 ± 0.31 mN/m
  mass density: 884.41 ± 0.39 kg/m3
[1]; 298.15 K, x2 = 0.501
  surface tension liquid-gas: 28.73 ± 0.31 mN/m
  mass density: 892.85 ± 0.37 kg/m3
[1]; 298.15 K, x2 = 0.6004
  surface tension liquid-gas: 29.03 ± 0.31 mN/m
  mass density: 902.45 ± 0.35 kg/m3
[1]; 298.15 K, x2 = 0.7003
  surface tension liquid-gas: 29.35 ± 0.31 mN/m
  mass density: 913.59 ± 0.33 kg/m3
[1]; 298.15 K, x2 = 0.8008
  surface tension liquid-gas: 29.72 ± 0.31 mN/m
  mass density: 926.64 ± 0.3 kg/m3
[1]; 298.15 K, x2 = 0.9001
  surface tension liquid-gas: 30.2 ± 0.32 mN/m
  mass density: 941.83 ± 0.28 kg/m3
[1]; 298.15 K, x2 = 0.0486
  mass density: 862.67 ± 0.45 kg/m3
[1]; 298.15 K, x2 = 0.1546
  mass density: 867.91 ± 0.43 kg/m3
[1]; 298.15 K, x2 = 0.2469
  mass density: 873.41 ± 0.42 kg/m3
[1]; 298.15 K, x2 = 0.3469
  mass density: 880.3 ± 0.4 kg/m3
[1]; 298.15 K, x2 = 0.45
  mass density: 888.41 ± 0.38 kg/m3
[1]; 298.15 K, x2 = 0.5508
  mass density: 897.5 ± 0.36 kg/m3
[1]; 298.15 K, x2 = 0.6509
  mass density: 907.91 ± 0.34 kg/m3
[1]; 298.15 K, x2 = 0.7483
  mass density: 919.54 ± 0.32 kg/m3
[1]; 298.15 K, x2 = 0.8501
  mass density: 933.84 ± 0.29 kg/m3
[1]; 298.15 K, x2 = 0.9502
  mass density: 950.56 ± 0.27 kg/m3
[1]; 313.15 K, x2 = 0
  surface tension liquid-gas: 26.82 ± 0.3 mN/m
  mass density: 848.74 ± 0.47 kg/m3
[1]; 313.15 K, x2 = 0.0979
  surface tension liquid-gas: 26.93 ± 0.3 mN/m
  mass density: 852.21 ± 0.46 kg/m3
[1]; 313.15 K, x2 = 0.198
  surface tension liquid-gas: 26.91 ± 0.3 mN/m
  mass density: 857.38 ± 0.44 kg/m3
[1]; 313.15 K, x2 = 0.3009
  surface tension liquid-gas: 26.97 ± 0.3 mN/m
  mass density: 863.78 ± 0.42 kg/m3
[1]; 313.15 K, x2 = 0.3988
  surface tension liquid-gas: 27.02 ± 0.3 mN/m
  mass density: 870.82 ± 0.41 kg/m3
[1]; 313.15 K, x2 = 0.5005
  surface tension liquid-gas: 27.13 ± 0.3 mN/m
  mass density: 879.25 ± 0.39 kg/m3
[1]; 313.15 K, x2 = 0.6003
  surface tension liquid-gas: 27.36 ± 0.3 mN/m
  mass density: 888.79 ± 0.37 kg/m3
[1]; 313.15 K, x2 = 0.6995
  surface tension liquid-gas: 27.67 ± 0.3 mN/m
  mass density: 899.77 ± 0.34 kg/m3
[1]; 313.15 K, x2 = 0.8001
  surface tension liquid-gas: 28.01 ± 0.3 mN/m
  mass density: 912.79 ± 0.32 kg/m3
[1]; 313.15 K, x2 = 0.9006
  surface tension liquid-gas: 28.55 ± 0.3 mN/m
  mass density: 928.15 ± 0.29 kg/m3
[1]; 313.15 K, x2 = 0.0518
  mass density: 850.28 ± 0.46 kg/m3
[1]; 313.15 K, x2 = 0.1489
  mass density: 854.71 ± 0.45 kg/m3
[1]; 313.15 K, x2 = 0.2497
  mass density: 860.47 ± 0.43 kg/m3
[1]; 313.15 K, x2 = 0.349
  mass density: 867.13 ± 0.41 kg/m3
[1]; 313.15 K, x2 = 0.4527
  mass density: 875.14 ± 0.4 kg/m3
[1]; 313.15 K, x2 = 0.5497
  mass density: 883.79 ± 0.38 kg/m3
[1]; 313.15 K, x2 = 0.6491
  mass density: 893.96 ± 0.36 kg/m3
[1]; 313.15 K, x2 = 0.7498
  mass density: 906.04 ± 0.33 kg/m3
[1]; 313.15 K, x2 = 0.8374
  mass density: 918.17 ± 0.31 kg/m3
[1]; 313.15 K, x2 = 0.9491
  mass density: 936.64 ± 0.28 kg/m3

## Cc1cc(C)cc(C)c1 [1,3,5-trimethylbenzene] + COCCOC
[1]; 298.15 K, x2 = 0
  surface tension liquid-gas: 28.09 ± 0.31 mN/m
  mass density: 861.05 ± 0.46 kg/m3
[1]; 313.15 K, x2 = 0
  surface tension liquid-gas: 26.82 ± 0.3 mN/m
  mass density: 848.74 ± 0.47 kg/m3

## COCCO [2-methoxyethan-1-ol]
[2]; 298.15 K
  surface tension liquid-gas: 30.88 ± 0.32 mN/m
  mass density: 960.02 ± 0.25 kg/m3
[2]; 313.15 K
  surface tension liquid-gas: 29.42 ± 0.31 mN/m
  mass density: 946.17 ± 0.26 kg/m3

## COCCO [2-methoxyethan-1-ol] + Cc1cc(C)cc(C)c1
[1]; 298.15 K, x1 = 1
  surface tension liquid-gas: 30.88 ± 0.32 mN/m
  mass density: 960.02 ± 0.25 kg/m3
[1]; 313.15 K, x1 = 1
  surface tension liquid-gas: 29.42 ± 0.31 mN/m
  mass density: 946.17 ± 0.26 kg/m3

## COCCO [2-methoxyethan-1-ol] + Cc1ccc(C)c(C)c1
[1]; 298.15 K, x1 = 1
  surface tension liquid-gas: 30.88 ± 0.32 mN/m
  mass density: 960.02 ± 0.25 kg/m3
[1]; 313.15 K, x1 = 1
  surface tension liquid-gas: 29.42 ± 0.31 mN/m
  mass density: 946.17 ± 0.26 kg/m3
